Assay results taken from PubChem BioAssay (NCI).
Several values for one entry are separate records, joined by “and”; a condition that tells them apart may be missing. Equal entries are not always repeated.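 In this assay, cells in 96-well plates receive the compound at five concentrations for 48 hours. Endpoints are linearly interpolated between the surrounding concentrations. Here, GI50 denotes the concentration required for 50% inhibition of growth. TGI is the concentration that stops growth completely.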

Legend:
Experiment in all cases: NCI tumour cell line growth inhibition, 48 h
A498 renal = tested on: A498 renal
ACHN renal = tested on: ACHN renal
CAKI-1 renal = tested on: CAKI-1 renal
M14 melanoma = tested on: M14 melanoma
MDA-MB-435 = tested on: MDA-MB-435
NCI-H522 lung = tested on: NCI-H522 lung
RXF 393 renal = tested on: RXF 393 renal
SF-295 CNS = tested on: SF-295 CNS
SNB-75 CNS = tested on: SNB-75 CNS
SW-620 colon = tested on: SW-620 colon

Structure (SMILES)	GI50 (A498 renal)	TGI (A498 renal)	GI50 (ACHN renal)	TGI (ACHN renal)	GI50 (CAKI-1 renal)	TGI (CAKI-1 renal)	GI50 (M14 melanoma)	TGI (M14 melanoma)	GI50 (MDA-MB-435) [µM]	TGI (MDA-MB-435)	GI50 (NCI-H522 lung)	TGI (NCI-H522 lung)	GI50 (RXF 393 renal)	TGI (RXF 393 renal)	GI50 (SF-295 CNS)	TGI (SF-295 CNS)	GI50 (SNB-75 CNS)	TGI (SNB-75 CNS)	GI50 (SW-620 colon)	TGI (SW-620 colon)
CN1CCN(c2ccc3nc(-c4[nH]ncc4Nc4ncnc5[nH]ccc45)[nH]c3c2)CC1	0.253 µM	0.588 µM	0.394 µM	7.66 µM	0.183 µM	1.57 µM	0.377 µM	1.84 µM	0.303	1.61 µM	0.196 µM	0.805 µM	0.177 µM	0.397 µM	0.867 µM	3.18 µM	0.116 µM	0.574 µM	0.312 µM	3.47 µM
COc1ccc2c(c1)c(-c1ccc(-c3cn(C)c4ccc(OC)cc34)s1)cn2C	> 100 µM	> 100 µM	> 100 µM	> 100 µM	> 100 µM	> 100 µM	> 100 µM	> 100 µM	> 100	> 100 µM	> 100 µM	> 100 µM	> 100 µM	> 100 µM	> 100 µM	> 100 µM	49.4 µM	> 100 µM	> 100 µM	> 100 µM
CCOc1cc(/C=C/C(=O)CC(=O)/C=C/c2ccc(OC(=O)CNc3nc4ccc(OC)cc4s3)c(OCC)c2)ccc1OC(=O)CNc1nc2ccc(OC)cc2s1	13.4 µM	26.2 µM	14.2 µM	60.2 µM	11.4 µM	53.3 µM	5.18 µM	22.5 µM	2.46	8.3 µM	12.6 µM	34.4 µM	2.9 µM	17 µM	15.4 µM	33.2 µM	6.77 µM	34.3 µM	3.78 µM	13.2 µM
CN1CCC2(CC1)C(=O)Nc1cc(NC(=O)c3ccc4c(c3)C[C@@H]3C(C)(C)[C@H](O)[C@H](F)C[C@@]3(C)O4)ccc12	0.135 µM	1.09 µM	8.59 µM	> 100 µM	1.34 µM	18.7 µM	0.549 µM	4.37 µM	1.31	13 µM	10.8 µM	33.2 µM	0.0497 µM	10.6 µM	0.0495 µM	0.256 µM	0.0373 µM	4.8 µM	0.588 µM	11.5 µM
C/C(=C1\C(=O)Nc2ccccc21)c1cccc(/C(C)=C2/C(=O)Nc3ccccc32)n1	4.44 µM	34.8 µM	8.56 µM	48.1 µM	2.34 µM	24.3 µM	6.84 µM	> 100 µM	2.57	13.4 µM	9.59 µM	99.5 µM	12.3 µM	58.7 µM	18.5 µM	85.4 µM	40.2 µM	> 100 µM	7.69 µM	> 100 µM
COCCn1c(Nc2ccc(C(=O)NO)cc2)nc2ccccc21	2.64 µM	9.17 µM	2.85 µM	12.9 µM	1.37 µM	6.24 µM	3.49 µM	14.9 µM	2.89	11.4 µM	2.28 µM	13.6 µM	0.846 µM	3.91 µM	2.93 µM	16.3 µM	2.62 µM	19.1 µM	2.34 µM	7.14 µM
CCOC(=O)c1sc2nc(=S)[nH]c(NC(N)=S)c2c1C	27.8 µM	62 µM	15.7 µM	32.8 µM	31.4 µM	61.7 µM	26.5 µM	64.6 µM	30.5	70.3 µM	20.7 µM	55 µM	19.1 µM	47.2 µM	24.4 µM	65.8 µM	21.4 µM	66.6 µM	23.3 µM	55.1 µM
O=C(Nc1ccc(Nc2ccc3c(c2)C(=O)c2ccccc2C3=O)c2c1C(=O)c1ccccc1C2=O)c1ccccc1		> 100 µM		> 100 µM		> 100 µM		> 100 µM		> 100 µM		> 42.1 µM		> 96.6 µM		> 100 µM		58.1 µM		> 100 µM
O=c1[nH]c(=O)n(Cc2ccc(C34CC5CC(CC(C5)C3)C4)c(O)c2)cc1F	10.2 µM	22.1 µM	12.5 µM	25.2 µM	17.7 µM	37.5 µM	11.5 µM	29.2 µM	3.67	15.4 µM	13.1 µM	31.9 µM	5.28 µM	18.3 µM	9.62 µM	27.2 µM	12.8 µM	32 µM	13.5 µM	34.2 µM
O=c1oc2ccccc2cc1P(=O)(O)O		> 100 µM		> 100 µM		> 100 µM		> 100 µM		> 100 µM		> 100 µM		> 100 µM		> 100 µM		> 100 µM		> 100 µM
CN(C)CCN1C(=O)c2cccc3cc(N)cc(c23)C1=O		13.8 µM and 8.93 µM	1.33 µM	4.47 µM and 3.63 µM	1.77 µM and 1.11 µM	11.1 µM and 7.59 µM		16.7 µM and 8.69 µM	3.86	15.7 µM and 9.98 µM	3.21 µM	11.6 µM and 10.3 µM		18.1 µM and 10.6 µM	2.29 µM	9.31 µM and 18.4 µM	3.81 µM	17 µM and 16.7 µM	2.14 µM	24.3 µM and 15.9 µM
Clc1ccc(NCNC2Nc3ccccc3N2)cc1Cl		> 100 µM		> 100 µM		> 100 µM		> 100 µM		93.2 µM		56.2 µM		> 100 µM		> 100 µM		> 100 µM		> 100 µM
Clc1ccc2c(NC3CCC(NC4CCCCC4)CC3)ccnc2c1 (configuration not stated)	4.07 µM	27.4 µM	4.85 µM	17.1 µM	1.81 µM	6.63 µM	1.72 µM	3.19 µM	2.11	5.51 µM	3.37 µM	14 µM	3.61 µM	16.6 µM	1.92 µM	5.19 µM	4.63 µM	19.4 µM	1.92 µM	4.19 µM
CCCCCCCCCCCC(c1ccccc1)[N+](C)(C)C (configuration not stated)	1.99 µM	7.24 µM	4.93 µM	26.1 µM	9.98 µM	26 µM	1.37 µM	4.25 µM	1.35	3.05 µM	0.294 µM	1.97 µM	0.451 µM	2.26 µM	2.32 µM	8.9 µM	1.15 µM	2.55 µM	1.5 µM	3.86 µM
Cc1ccc(/C=C/C(=O)c2ccc(F)cc2)s1	2.69 µM	11.1 µM	2.26 µM	4.52 µM	1.78 µM	3.72 µM	7.89 µM	26.7 µM	1.77	3.7 µM	1.71 µM	3.57 µM	1.82 µM	4.04 µM	5.38 µM	18.8 µM	13.4 µM	26.5 µM	1.96 µM	3.99 µM
c1ccc2[nH]c(-c3ccc(Nc4nc(N5CCCC5)nc5[nH]ncc45)cc3)nc2c1	1.51 µM	3.01 µM	0.347 µM	1.07 µM	1.83 µM	3.48 µM	0.403 µM	1.62 µM	1.48	3.08 µM	0.244 µM	1.07 µM	0.814 µM	2.27 µM	0.204 µM	0.477 µM	1.28 µM	2.76 µM	0.211 µM	0.486 µM
C=C(C)[C@@H]1CC[C@]2(C(=O)OC)CC[C@]3(C)[C@H](CC[C@@H]4[C@@](C)(CCc5nn[nH]n5)[C@H](C(=C)C)CC[C@]43C)[C@@H]12	22.4 µM	60.7 µM	15 µM	48.1 µM	10.2 µM	35 µM	27.5 µM	> 100 µM	17.6	44.2 µM	17.2 µM	51.5 µM	15.7 µM	30.1 µM	13.6 µM	44.3 µM	15.9 µM	34.1 µM	19.3 µM	46 µM
CC(=O)Nc1ccc(CC[C@H]2CCC/C=C/[C@@H]3C[C@H](O)C[C@H]3[C@H](O)/C=C/C(=O)O2)cc1	0.016 µM	0.0475 µM	0.375 µM	> 47.2 µM	0.361 µM	> 21.2 µM	0.153 µM	> 100 µM	0.151	> 100 µM	0.261 µM	0.654 µM	0.0359 µM	0.15 µM	0.201 µM	> 100 µM	0.0446 µM	> 94.7 µM	0.185 µM	0.597 µM
COc1cc2c(cc1OCCCCCOc1ccc(-c3nc4ccccc4s3)cc1)N=C[C@@H]1CCCN1C2=O	5.29 µM	11.5 µM	2.73 µM	27.6 µM	2.36 µM	> 62 µM	1.46 µM	9.08 µM	10.5	69.2 µM	1.72 µM	13.7 µM	1.46 µM	5.43 µM	2.37 µM	> 100 µM	6.57 µM	59.8 µM	3.01 µM	> 28.6 µM
O=C(Nc1ccccc1/C=C/c1n[nH]c2ccccc12)c1ccccc1	1.42 µM	3.21 µM	7.71 µM	20.1 µM	2.98 µM	16.9 µM	3.32 µM	15 µM	1.97	13.5 µM	9.28 µM	24 µM	4.58 µM	17.3 µM	2.13 µM	5.57 µM	9.04 µM	23.9 µM	1.71 µM	11.5 µM
CC[C@@H]1C(=O)N(C)c2cnc(Nc3ccc(C(=O)NC4CCC(N5CCN(CC6CC6)CC5)CC4)cc3OC)nc2N1C(C)C (some centres not stated)	0.0284 µM and 0.0338 µM	0.236 µM and 0.252 µM	0.305 µM and 0.222 µM	> 10 µM and 13.6 µM	0.109 µM and 0.39 µM	> 10 µM and 10.7 µM	0.00963 µM and 0.0349 µM	> 3.81 µM and 2.39 µM	< 0.01	0.0134 µM	0.00462 µM and < 0.0115 µM	0.0822 µM and 0.0564 µM	0.0349 µM and 0.0393 µM	> 9.08 µM and 4.9 µM	0.0353 µM and 0.0406 µM	2.51 µM and 2.44 µM	0.0296 µM and 0.0344 µM	6.73 µM	0.00561 µM and 0.0102 µM	> 10 µM and 11.1 µM
COc1cc(OC)c(OC)cc1/C=C/c1ccccn1		> 10 µM		> 10 µM		> 10 µM		> 10 µM		> 10 µM		> 10 µM		> 10 µM		> 10 µM		> 10 µM		> 10 µM
Cc1cc(NC(=O)NCCCOc2ccc(N3C(N)=NC(N)=NC3(C)C)cc2Cl)ccc1S(=O)(=O)F	7.94 µM	99.9 µM	11.3 µM	> 100 µM	> 63.7 µM	> 100 µM	2.42 µM	> 100 µM	0.577	33.2 µM	1.11 µM	25.2 µM	13.5 µM	> 100 µM	3.26 µM	> 100 µM	1.2 µM	24.4 µM	0.373 µM	> 100 µM
O=C(O)c1c2c(c(O)c3c1CN(C1CCCCC1)CO3)OCN(C1CCCCC1)C2		> 100 µM		> 100 µM		> 100 µM		> 100 µM		> 100 µM		95.9 µM		> 100 µM		> 100 µM		> 100 µM		52.5 µM
C=C1C(=O)O[C@@H]2C[C@@]3(C)CCC[C@H](C)C3=C[C@H]12 (tested in a mixture with another compound)		3.58 µM		6.98 µM		3.57 µM		2.75 µM		3.72 µM		2.94 µM		4.07 µM		24.6 µM		5.6 µM		3.97 µM
Cc1cc[c]([Sb]2[O]C(CO)C(C(O)C(O)C(=O)O)[O]2)cc1 (configuration not stated)	32.3 µM	99.7 µM	> 100 µM	> 100 µM	> 100 µM	> 100 µM	90 µM	> 100 µM	81.7	> 100 µM	42.7 µM	> 100 µM	28.2 µM	84.7 µM	61.1 µM	> 100 µM	23 µM	76.8 µM	> 100 µM	> 100 µM
